In general, IC50 refers to the concentration that inhibits the measured activity by half. The term melting point denotes the temperature of the solid-liquid transition.

We go through two compounds from US11130752B2, “Aminopyrimidine compound” (Cardurion Pharmaceuticals, LLC, priority 2018, dated 2021).

Where only a bound is given, the exact number is not on record here.

For one data set, the target named is T1, human CaMKIIδ (Homo sapiens, UniProt Q13557).
T1 construct: Full-length, glutathione-S-transferase(GST)-tagged, human CaMKIIδ was purchased from Carna Biosciences; purchased Carna Biosciences (CaMKIIδ); Wako Pure Chemical Industries (calmodulin) 02-111
The data set can be described thus: In vitro CaMKII inhibitory activity (binding assay, TR-FRET). The note with it: activity ranks. In a few lines:
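TR-FRET displacement of a BODIPY probe (300 nM) from 0.5 nM full-length GST-tagged human CaMKIIδ, with Tb-anti-GST, calmodulin and 1 mM CaCl2 in pH 7.6 HEPES/MgCl2 buffer. Read after 1 hr at room temperature over an eight-point 4-fold series. IC50 by logistic fit, with 3 μM parent compound as the 100% control.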
Background: TR-FRET usually uses a lanthanide donor and a delayed reading to cut background.

Data set [1] has as its system phospholamban (Thr17, PLN) phosphorylation, cardiac CaMKII. The experiment in a line: In vivo cardiac CaMKII inhibition (intravenous administration), P-PLN Western blot. The note with it: male CD (SD) IGS rat left ventricle, 1 mg/kg bolus i.v., 0.25 hr after administration, in comparison with vehicle-treated group. The method, then: Evaluation of In Vivo Cardiac CaMKII Inhibition (Intravenous Administration)
To evaluate potency of test compounds to inhibit cardiac CaMKII kinase in vivo, phosphorylation levels of CaMKII-specific sites of phospholamban (Thr17, PLN) were measured in the heart of rats administered intravenously with test compounds.
Test compounds were dissolved in N,N-dimethylacetamide and 1,3-butanediol (1:1) solution and were injected (1 mg/kg) to male CD (SD) IGS rats (8 weeks old, n=4) by bolus intravenous injection via the lateral tail vein or the femoral vein (0.5-1 mL/kg). At 0.25 hours after the injection, rats were sacrificed and the hearts were harvested. After washing the isolated hearts with ice-cold saline, connective tissues were removed on ice, and the isolated left ventricle were frozen into liquid nitrogen gas and stored at −80° C.
(§1) The left ventricle samples were homogenized in RIPA-buffer containing phosphatase inhibitors and protease inhibitors. Samples were analyzed by Western blotting using anti-P-PLN (Thr17, Santa Cruz Biotechnology, sc-17024-R) antibody. The band intensities were quantified using an imaging system and were normalized relative to the vehicle-treated group.
In general terms: Immunoblotting shows a protein as a band on a membrane.

In a further data set the test system is HepG2 cells. The data set can be described thus: In vitro cytotoxicity (cellular ATP content, CellTiter-Glo). The format is cell-based. The conditions noted are these: 33 μM, 72 hr incubation. The method, then: Evaluation of In Vitro Cytotoxicity
To evaluate in vitro cytotoxicity of test compounds, % ATP reduction was determined in the presence of 33 μM of each test compound after 72 hr incubation.
HepG2 cells were seeded in DMEM (Invitrogen) containing 10% FBS (Corning)+glucose (4.5 g/L) for 24 hr to allow cell adhesion. For compound treatments, compounds were diluted in DMSO and the media, followed by added to the wells (24 hr after the cell seeding) to obtain the desired final concentration (33 μM, n=2). The final DMSO concentration was 1%. After 72 hr, cellular ATP contents were measured using CellTiter-Glo Luminescent Cell Viability Assay (Promega). The % ATP reduction was determined by comparing the ATP contents in the absence and the presence of test compounds.

The subject of data set [2] is phospholamban (Thr17, PLN) phosphorylation, cardiac CaMKII. The experiment in a line: In vivo cardiac CaMKII inhibition (oral administration), P-PLN Western blot. The conditions noted are these: male CD (SD) IGS rat left ventricle, 30 mg/kg p.o., 4 hr after administration, in comparison with vehicle-treated group, read-out: Reduction rate of P-PLN. The method, then:
Evaluation of In Vivo Cardiac CaMKII Inhibition (Oral Administration)
To evaluate potency of test compounds to inhibit cardiac CaMKII kinase in vivo, phosphorylation levels of CaMKII-specific sites of phospholamban (Thr17, PLN) were measured in the heart of rats administered orally with test compounds.
Test compounds were suspended in 0.5% [w/v]methylcellulose/water solution and administered (30 mg/kg) to male CD (SD) IGS rat (6-8 weeks old, n=4) by the p.o. route (5 mL/kg). At 4 hours after the administration, rats were sacrificed and the hearts were harvested. After washing the isolated hearts with ice-cold saline, connective tissues were removed on ice, and the isolated left ventricle were frozen into liquid nitrogen gas and stored at −80° C.
as §1

For the compound `C[C@@H]1CN([C@H]2CC[C@H](n3cc(Nc4ncc(-c5ccc(C#N)c(O[C@@H](C)Cn6cnnn6)c5)cn4)c(OCCC(C)(C)O)n3)CC2)C[C@H](C)O1` [Example 485, 2-(((S)-1-(1H-tetrazol-1-yl)propan-2-yl)oxy)-4-(2-((1-((1r,4r)-4-((2S,6R)-2,6-dimethylmorpholino)cyclohexyl)-3-(3-hydroxy-3-methylbutoxy)-1H-pyrazol-4-yl)amino)pyrimidin-5-yl)benzonitrile], the IC50 at human CaMKIIδ (Table 4, GST-tagged human CaMKIIδ) was less than 10 nM. The “Reduction rate of P-PLN” value in data set [1] is reported as more than 30%. In the data set with HepG2 cells, the “% ATP reduction” value was 7%.

Compound `COCCCOc1nn([C@H]2CC[C@H](N3C[C@@H](C)O[C@@H](C)C3)CC2)cc1Nc1ncc(-c2ccc(C#N)c(O[C@@H](C)Cn3cnnn3)c2)cn1` [Example 143, 2-(((S)-1-(1H-tetrazol-1-yl)propan-2-yl)oxy)-4-(2-((1-((1r,4r)-4-((2S,6R)-2,6-dimethylmorpholino)cyclohexyl)-3-(3-methoxypropoxy)-1H-pyrazol-4-yl)amino)pyrimidin-5-yl)benzonitrile] showed a melting point of 113 °C. For the same compound, on human CaMKIIδ (Table 1, GST-tagged human CaMKIIδ), the IC50 is less than 10 nM. The inhibition in vivo at 30 mg/kg in data set [2] is more than 30%. The “Reduction rate of P-PLN” value in data set [1] is more than 30%. In the data set on HepG2 cells, the “% ATP reduction” value stood at 12%.
